# Experimental data taken from patent publication US20080234262A1 (Wyeth, priority 2007, published 2008).
# What was measured:
# [1] = molecular target: PI3K (Homo sapiens, UniProt P42336); test: Fluorescence polarization assay for PI3K; type: biochemical; conditions: PI3Kα; read-out: PI3Kα IC50;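 also: PI3K kinase reaction on PIP2 with ATP, 30-60 min, product sensed by GST-GRP with red probe in fluorescence polarization (mP), controls without enzyme and at zero time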
# [2] = system: prostate line LNCap; test: In vitro cell culture growth assay (MTS), LNCap; type: cell-based, human; conditions: Homo sapiens, LNCaP, 72 h, LNCap cells, three days after drug treatment;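 also: viable cell density read by absorbance at 490 nm, growth expressed as percent of vehicle-treated cells on the same plate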
# [3] = system: breast line MDA468; test: In vitro cell culture growth assay (MTS), MDA468; type: cell-based, human; conditions: Homo sapiens, 72 h, MDA468 cells, three days after drug treatment
# Summary of the method: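 Steps: plate cells; add inhibitors the next day; incubate 3 days; add MTS dye, which viable cells convert metabolically; measure absorbance at 490 nm; calculate percent of control growth relative to vehicle-treated cells in the same plate.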
# Chain of PI3K (P42336 whole entry): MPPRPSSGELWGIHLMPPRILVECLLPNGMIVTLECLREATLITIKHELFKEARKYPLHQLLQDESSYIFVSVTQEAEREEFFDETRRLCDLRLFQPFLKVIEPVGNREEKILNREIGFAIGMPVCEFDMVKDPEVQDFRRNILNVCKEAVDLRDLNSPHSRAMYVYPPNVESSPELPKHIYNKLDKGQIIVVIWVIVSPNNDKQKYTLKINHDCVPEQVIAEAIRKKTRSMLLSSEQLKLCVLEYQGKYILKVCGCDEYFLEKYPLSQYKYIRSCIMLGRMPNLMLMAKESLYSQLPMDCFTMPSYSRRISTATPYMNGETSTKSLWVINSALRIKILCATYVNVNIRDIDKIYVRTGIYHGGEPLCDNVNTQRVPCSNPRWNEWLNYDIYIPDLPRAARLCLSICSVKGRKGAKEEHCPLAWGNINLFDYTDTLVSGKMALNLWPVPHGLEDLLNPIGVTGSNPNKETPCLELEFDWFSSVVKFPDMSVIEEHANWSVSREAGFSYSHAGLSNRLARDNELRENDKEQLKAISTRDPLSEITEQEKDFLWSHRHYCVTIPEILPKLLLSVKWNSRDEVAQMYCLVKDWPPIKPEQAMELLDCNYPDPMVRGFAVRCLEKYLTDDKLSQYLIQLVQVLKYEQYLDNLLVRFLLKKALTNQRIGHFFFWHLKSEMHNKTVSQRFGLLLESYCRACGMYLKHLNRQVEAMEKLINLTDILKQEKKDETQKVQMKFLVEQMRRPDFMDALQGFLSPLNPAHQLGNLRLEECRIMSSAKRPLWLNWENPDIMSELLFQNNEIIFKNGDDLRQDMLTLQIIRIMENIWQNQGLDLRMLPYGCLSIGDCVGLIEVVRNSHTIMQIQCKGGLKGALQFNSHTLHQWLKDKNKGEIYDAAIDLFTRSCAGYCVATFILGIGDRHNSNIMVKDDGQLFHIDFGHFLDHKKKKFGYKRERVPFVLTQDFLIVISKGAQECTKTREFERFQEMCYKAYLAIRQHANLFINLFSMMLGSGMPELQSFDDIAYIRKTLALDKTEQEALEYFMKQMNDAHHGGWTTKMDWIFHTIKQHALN
# Chain of PI3K (P27986 whole entry partner): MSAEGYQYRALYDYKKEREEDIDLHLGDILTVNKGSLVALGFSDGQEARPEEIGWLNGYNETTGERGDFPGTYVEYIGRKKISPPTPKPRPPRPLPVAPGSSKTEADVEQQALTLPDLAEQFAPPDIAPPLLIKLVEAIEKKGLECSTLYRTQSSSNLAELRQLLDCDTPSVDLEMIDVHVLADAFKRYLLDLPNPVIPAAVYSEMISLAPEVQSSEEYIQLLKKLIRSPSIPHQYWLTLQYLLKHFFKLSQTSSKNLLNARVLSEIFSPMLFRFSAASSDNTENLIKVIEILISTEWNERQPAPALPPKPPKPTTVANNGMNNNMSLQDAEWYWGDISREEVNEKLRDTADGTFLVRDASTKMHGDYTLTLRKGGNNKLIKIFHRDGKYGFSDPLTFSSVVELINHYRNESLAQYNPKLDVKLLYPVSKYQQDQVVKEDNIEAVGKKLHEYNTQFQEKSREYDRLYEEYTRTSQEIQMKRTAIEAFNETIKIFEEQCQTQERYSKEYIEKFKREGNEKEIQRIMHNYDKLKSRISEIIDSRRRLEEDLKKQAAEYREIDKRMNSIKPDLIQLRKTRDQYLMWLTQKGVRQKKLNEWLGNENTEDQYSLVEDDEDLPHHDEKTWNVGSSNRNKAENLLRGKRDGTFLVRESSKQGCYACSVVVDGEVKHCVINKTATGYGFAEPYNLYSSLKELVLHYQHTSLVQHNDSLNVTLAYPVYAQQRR
SMILES,IC50 [1] [nM],IC50 [2] [nM],IC50 [3] [nM]
O=C(NC1CCCC1)c1ccc(-c2nc(N3CCOCC3)c3cnn(C4CCN(Cc5ccccc5)CC4)c3n2)cc1 [Example 70],3870,3000,15000
c1ccc(CN2CCC(n3ncc4c(N5CCOCC5)nc(-c5cccc6cc[nH]c56)nc43)CC2)cc1 [Example 72],520,9500,6000
Oc1cccc(CN2CCC(n3ncc4c(N5CCOCC5)nc(-c5ccc6[nH]ccc6c5)nc43)CC2)c1 [Example 76],522,900,1000
"c1cc2cc(-c3nc(N4CCOCC4)c4cnn(C5CCCCC5)c4n3)ccc2[nH]1 [Example 90, 1-cyclohexyl-6-(1H-indol-5-yl)-4-morpholin-4-yl-1H-pyrazolo[3,4-d]pyrimidine]",918,1200,3200
"Oc1cccc(-c2nc(N3CCOCC3)c3cnn(C4CCCCC4)c3n2)c1 [Example 91, 3-(1-cyclohexyl-4-morpholin-4-yl-1H-pyrazolo[3,4-d]pyrimidin-6-yl)phenol]",35,410,2500
"CC(=O)Nc1ccc(-c2nc(N3CCOCC3)c3cnn(C4CCN(C(=O)c5cccnc5)CC4)c3n2)cc1 [Example 159, N-(4-{4-morpholin-4-yl-1-[1-(pyridin-3-ylcarbonyl)piperidin-4-yl]-1H-pyrazolo[3,4-d]pyrimidin-6-yl}phenyl)acetamide]",878,630,2500
"Fc1ccc(CN2CCC(n3ncc4c(N5CCOCC5)nc(-c5ccc6[nH]ccc6c5)nc43)CC2)cn1 [Example 172, 1-{1-[(6-fluoropyridin-3-yl)methyl]piperidin-4-yl}-6-(1H-indol-5-yl)-4-morpholin-4-yl-1H-pyrazolo[3,4-d]pyrimidine]",366,1000,1700
"Brc1ccc(CN2CCC(n3ncc4c(N5CCOCC5)nc(-c5ccc6[nH]ccc6c5)nc43)CC2)cn1 [Example 173, 1-{1-[(6-bromopyridin-3-yl)methyl]piperidin-4-yl}-6-(1H-indol-5-yl)-4-morpholin-4-yl-1H-pyrazolo[3,4-d]pyrimidine]",262,1200,2700
"O=C(c1cccnc1Cl)N1CCC(n2ncc3c(N4CCOCC4)nc(-c4ccc5[nH]ccc5c4)nc32)CC1 [Example 195, 1-{1-[(2-chloropyridin-3-yl)carbonyl]piperidin-4-yl}-6-(1H-indol-5-yl)-4-morpholin-4-yl-1H-pyrazolo[3,4-d]pyrimidine]",1690,450,1000
"O=C(c1ccc(Cl)nc1)N1CCC(n2ncc3c(N4CCOCC4)nc(-c4ccc5[nH]ccc5c4)nc32)CC1 [Example 196, 1-{1-[(6-chloropyridin-3-yl)carbonyl]piperidin-4-yl}-6-(1H-indol-5-yl)-4-morpholin-4-yl-1H-pyrazolo[3,4-d]pyrimidine]",1280,750,3000
"O=C(c1ncccc1O)N1CCC(n2ncc3c(N4CCOCC4)nc(-c4ccc5[nH]ccc5c4)nc32)CC1 [Example 198, 2-({4-[6-(1H-indol-5-yl)-4-morpholin-4-yl-1H-pyrazolo[3,4-d]pyrimidin-1-yl]piperidin-1-yl}carbonyl)pyridin-3-ol]",1650,700,4000
"Cc1ccncc1C(=O)N1CCC(n2ncc3c(N4CCOCC4)nc(-c4ccc5[nH]ccc5c4)nc32)CC1 [Example 199, 6-(1H-indol-5-yl)-1-{1-[(4-methylpyridin-3-yl)carbonyl]piperidin-4-yl}-4-morpholin-4-yl-1H-pyrazolo[3,4-d]pyrimidine]",2940,450,1800
"Cc1ncccc1C(=O)N1CCC(n2ncc3c(N4CCOCC4)nc(-c4ccc5[nH]ccc5c4)nc32)CC1 [Example 200, 6-(1H-indol-5-yl)-1-{1-[(2-methylpyridin-3-yl)carbonyl]piperidin-4-yl}-4-morpholin-4-yl-1H-pyrazolo[3,4-d]pyrimidine]",2390,750,2000
"Cc1ccc(C(=O)N2CCC(n3ncc4c(N5CCOCC5)nc(-c5ccc6[nH]ccc6c5)nc43)CC2)cn1 [Example 202, 6-(1H-indol-5-yl)-1-{1-[(6-methylpyridin-3-yl)carbonyl]piperidin-4-yl}-4-morpholin-4-yl-1H-pyrazolo[3,4-d]pyrimidine]",2100,400,2000
"Oc1cccc(-c2nc(N3CCOCC3)c3cn[nH]c3n2)c1 [Example 204, 3-(4-morpholin-4-yl-1H-pyrazolo[3,4-d]pyrimidin-6-yl)phenol]",26,2500,8000
"Nc1ccc(-c2nc(N3CCOCC3)c3cnn(C4CCN(Cc5cccnc5)CC4)c3n2)cn1 [Example 210, 5-{4-morpholin-4-yl-1-[1-(pyridin-3-ylmethyl)piperidin-4-yl]-1H-pyrazolo[3,4-d]pyrimidin-6-yl}pyridin-2-amine]",108,200,1100
"CCCCNC(=O)Nc1ccc(-c2nc(N3CCOCC3)c3cnn(C4CCN(Cc5cccnc5)CC4)c3n2)cc1 [Example 212, 1-Butyl-3-(4-{4-morpholin-4-yl-1-[1-(pyridin-3-ylmethyl)piperidin-4-yl]-1H-pyrazolo[3,4-d]pyrimidin-6-yl}phenyl)urea]",106,370,1400
"COC(=O)Nc1ccc(-c2nc(N3CCOCC3)c3cnn(C4CCN(C(=O)c5cccnc5)CC4)c3n2)cc1 [Example 213, methyl (4-{4-morpholin-4-yl-1-[1-(pyridin-3-ylcarbonyl)piperidin-4-yl]-1H-pyrazolo[3,4-d]pyrimidin-6-yl}phenyl)carbamate]",514,355,1200
"Nc1ccc(-c2nc(N3CCOCC3)c3cnn(C4CCN(C(=O)c5cccnc5)CC4)c3n2)cn1 [Example 214, 5-{4-morpholin-4-yl-1-[1-(pyridin-3-ylcarbonyl)piperidin-4-yl]-1H-pyrazolo[3,4-d]pyrimidin-6-yl}pyridin-2-amine]",109,570,1500
"Nc1ncc(-c2nc(N3CCOCC3)c3cnn(C4CCN(C(=O)c5cccnc5)CC4)c3n2)cn1 [Example 215, 5-{4-morpholin-4-yl-1-[1-(pyridin-3-ylcarbonyl)piperidin-4-yl]-1H-pyrazolo[3,4-d]pyrimidin-6-yl}pyrimidin-2-amine]",37,650,1300
"CCCCNC(=O)Nc1ccc(-c2nc(N3CCOCC3)c3cnn(C4CCN(C(=O)c5cccnc5)CC4)c3n2)cc1 [Example 216, 1-butyl-3-(4-{4-morpholin-4-yl-1-[1-(pyridin-3-ylcarbonyl)piperidin-4-yl]-1H-pyrazolo[3,4-d]pyrimidin-6-yl}phenyl)urea]",446,400,1500
"COC(=O)N1CCC(n2ncc3c(N4CCOCC4)nc(-c4ccc5[nH]ccc5c4)nc32)CC1 [Example 244, methyl 4-[6-(1H-indol-5-yl)-4-morpholin-4-yl-1H-pyrazolo[3,4-d]pyrimidin-1-yl]piperidine-1-carboxylate]",3300,750,2100
